Source: patent publication US20230077362A1 (CORTEVA AGRISCIENCE LLC, priority 2019, published 2023)
Where two headings read alike, the source gives them in different places.

Columns and labels:
[1] = system: Beet Armyworm (Spodoptera exigua) ("BAW"), second instar larvae; assay: Bioassay on beet armyworm (BAW), 128-well diet tray assay; type: in vivo; conditions: for pest or weed control at 50 µg/cm2: Spodoptera exigua; for BAW (Biological Results, rating): Beet Armyworm (Spodoptera exigua), C = Not Tested
Outline: (§1)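 After sealing with a clear self-adhesive lid, the trays are incubated at 25° C. with 14 h light and 10 h dark for 5 to 7 days; mortality in each well is recorded as a percentage and averaged across the eight wells.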

[2] = system: Cabbage Looper (Trichoplusia ni) ("CL"), second instar larvae; assay: Bioassay on cabbage looper (CL), 128-well diet tray assay; type: in vivo; conditions: for pest or weed control at 50 µg/cm2: Trichoplusia ni; for CL (Biological Results, rating): Cabbage Looper (Trichoplusia ni), C = Not Tested
Outline: as §1

[3] = read-out: BAW (Biological Results, rating)
[4] = read-out: CL (Biological Results, rating)

| SMILES | BAW (Biological Results, rating) [1] | CL (Biological Results, rating) [2] | pest or weed control at 50 µg/cm2 ([1]; read-out: BAW rating) [%] | pest or weed control at 50 µg/cm2 ([2]; read-out: CL rating) [%] | also measured |
| --- | --- | --- | --- | --- | --- |
| Cc1ccc(C(C)C)c(N2C(=O)CS/C2=N\C(=O)Nc2ccc(-c3ncn(-c4ccc(C(F)(F)F)cn4)n3)cc2)c1 [Compound J337, (Z)-1-(3-(2-Isopropyl-5-methylphenyl)-4-oxothiazolidin-2-ylidene)-3-(4-(1-(5-(trifluoromethyl)pyridin-2-yl)-1H-1,2,4-triazol-3-yl)phenyl)urea] | – | – | – | – | pest or weed control at 50 µg/cm2 [1, 3]: 50 to 100%; pest or weed control at 50 µg/cm2 [2, 4]: 50 to 100% |
| COC(C)c1ccc(C)cc1N1C(=O)CS/C1=N\C(=O)Nc1ccc(-c2ncn(-c3ccc(C(F)(F)F)cn3)n2)cc1 (stereo not shown) [Compound J338, (Z)-1-(3-(2-(1-Methoxyethyl)-5-methylphenyl)-4-oxothiazolidin-2-ylidene)-3-(4-(1-(5-(trifluoromethyl)pyridin-2-yl)-1H-1,2,4-triazol-3-yl)phenyl)urea] | – | – | – | – | pest or weed control at 50 µg/cm2 [1, 3]: 50 to 100%; pest or weed control at 50 µg/cm2 [2, 4]: 50 to 100% |
| CC(C)c1ccc(N(C)C)cc1N1C(=O)CS/C1=N\C(=O)Nc1ccc(-c2ncn(-c3ccc(C(F)(F)F)cn3)n2)cc1 [Compound J339] | A (50-100) | A (50-100) | – | – | – |
| COC(C)c1ccc(C)cc1N1C(=O)CS/C1=N\C(=O)Nc1ccc(-c2ncn(-c3ccc(OCC#N)cc3)n2)cc1F (stereo not shown) [Compound J340, (Z)-1-(4-(1-(4-(Cyanomethoxy)phenyl)-1H-1,2,4-triazol-3-yl)-2-fluorophenyl)-3-(3-(2-(1-methoxyethyl)-5-methylphenyl)-4-oxothiazolidin-2-ylidene)urea] | – | – | – | – | pest or weed control at 50 µg/cm2 [1, 3]: 50 to 100%; pest or weed control at 50 µg/cm2 [2, 4]: 50 to 100% |
| COC(C)c1ccc(C)cc1N1C(=O)CS/C1=N\C(=O)Nc1ccc(-c2ncn(-c3ccc(C(F)F)cn3)n2)cc1F (stereo not shown) [Compound J341] | A (50-100) | A (50-100) | – | – | – |
| CC(C)c1ccc(N(C)C)cc1N1C(=O)CS/C1=N\C(=O)Nc1ccc(-c2ncn(-c3ccc(OCC#N)cc3)n2)cc1F [Compound J342, (Z)-1-(4-(1-(4-(Cyanomethoxy)phenyl)-1H-1,2,4-triazol-3-yl)-2-fluorophenyl)-3-(3-(5-(dimethylamino)-2-isopropylphenyl)-4-oxothiazolidin-2-ylidene)urea] | – | – | – | – | pest or weed control at 50 µg/cm2 [1, 3]: 50 to 100%; pest or weed control at 50 µg/cm2 [2, 4]: 50 to 100% |
| Cc1ccc(COCC(F)(F)F)c(N2C(=O)CS/C2=N\C(=O)Nc2ccc(-c3ncn(-c4ccc(OCC#N)cc4)n3)cc2F)c1 [Compound J343, (Z)-1-(4-(1-(4-(Cyanomethoxy)phenyl)-1H-1,2,4-triazol-3-yl)-2-fluorophenyl)-3-(3-(5-methyl-2-((2,2,2-trifluoroethoxy)methyl)phenyl)-4-oxothiazolidin-2-ylidene)urea] | – | – | – | – | pest or weed control at 50 µg/cm2 [1, 3]: 50 to 100%; pest or weed control at 50 µg/cm2 [2, 4]: 50 to 100% |
| COCc1ccc(C)cc1N1C(=O)CS/C1=N\C(=O)Nc1ccc(-c2ncn(-c3ccc(C(F)F)cn3)n2)cc1F [Compound J345] | A (50-100) | A (50-100) | – | – | – |
| Cc1ccc(COCC(F)(F)F)c(N2C(=O)CS/C2=N\C(=O)Nc2ccc(-c3ncn(-c4ccc(C(F)F)cn4)n3)cc2F)c1 [Compound J346] | A (50-100) | A (50-100) | – | – | – |
| CC(C)c1ccc(N(C)C)cc1N1C(=O)CS/C1=N\C(=O)Nc1ccc(-c2ncn(-c3ccc(C(F)F)cn3)n2)cc1F [Compound J347] | A (50-100) | A (50-100) | – | – | – |
| CC(C)c1ccc(N(C)C)cc1N1C(=O)CS/C1=N\C(=O)Nc1ccc(-c2ccn(-c3ccc(C(F)(F)F)cn3)n2)cc1F [Compound J349] | A (50-100) | A (50-100) | – | – | – |
| CC(C)c1cc(F)c(N(C)C)cc1N1C(=O)CS/C1=N\C(=O)Nc1ccc(-c2ncn(-c3ccc(C(F)F)cn3)n2)cc1F [Compound J351] | A (50-100) | A (50-100) | – | – | – |
| CC(C)c1cc(F)c(N(C)C)cc1N1C(=O)CS/C1=N\C(=O)Nc1ccc(-c2ncn(-c3ccc(C(F)(F)F)cn3)n2)cc1F [Compound J352] | A (50-100) | A (50-100) | – | – | – |
| COC(c1ccc(C)cc1N1C(=O)CS/C1=N\C(=O)Nc1ccc(-c2ncn(-c3ccc(C(F)F)cn3)n2)cc1F)C(F)(F)F (stereo not shown) [Compound J353] | A (50-100) | A (50-100) | – | – | – |
| CCOC(C)c1ccc(C)cc1N1C(=O)CS/C1=N\C(=O)Nc1ccc(-c2ncn(-c3ccc(C(F)F)cn3)n2)cc1F (stereo not shown) [Compound J354] | A (50-100) | A (50-100) | – | – | – |
| COc1ccc(C(C)C)c(N2C(=O)CS/C2=N\C(=O)Nc2ccc(-c3ncn(-c4ccc(C(F)F)cn4)n3)cc2F)c1 [Compound J355] | – | – | – | – | pest or weed control at 50 µg/cm2 [1, 3]: 50 to 100%; pest or weed control at 50 µg/cm2 [2, 4]: 50 to 100% |
| Cc1cc(-c2ncn(-c3ccc(OCC#N)cc3)n2)ccc1NC(=O)/N=C1\SCC(=O)N1c1cc(N(C)C)ccc1C(C)C [Compound J357, (Z)-1-(4-(1-(4-(Cyanomethoxy)phenyl)-1H-1,2,4-triazol-3-yl)-2-methylphenyl)-3-(3-(5-(dimethylamino)-2-isopropylphenyl)-4-oxothiazolidin-2-ylidene)urea] | – | – | 50 to 100 | 50 to 100 | – |
| COC(C)c1ccc(C)cc1N1C(=O)CS/C1=N\C(=O)Nc1ccc(-c2ncn(-c3ccc(OCC#N)cc3)n2)cc1C (stereo not shown) [Compound J358, (Z)-1-(4-(1-(4-(Cyanomethoxy)phenyl)-1H-1,2,4-triazol-3-yl)-2-methylphenyl)-3-(3-(2-(1-methoxyethyl)-5-methylphenyl)-4-oxothiazolidin-2-ylidene)urea] | – | – | 50 to 100 | 50 to 100 | – |
| Cc1ccc(COCC(F)(F)F)c(N2C(=O)CS/C2=N\C(=O)Nc2ccc(-c3ncn(-c4ccc(OCC#N)cc4)n3)cc2C)c1 [Compound J359, (Z)-1-(4-(1-(4-(Cyanomethoxy)phenyl)-1H-1,2,4-triazol-3-yl)-2-methylphenyl)-3-(3-(5-methyl-2-((2,2,2-trifluoroethoxy)methyl)phenyl)-4-oxothiazolidin-2-ylidene)urea] | – | – | 50 to 100 | 50 to 100 | – |
| Cc1ccc(OCCC(F)(F)F)c(N2C(=O)CS/C2=N\C(=O)Nc2ccc(-c3ncn(-c4ccc(OCC#N)cc4)n3)cc2C)c1 [Compound J360, (Z)-1-(4-(1-(4-(Cyanomethoxy)phenyl)-1H-1,2,4-triazol-3-yl)-2-methylphenyl)-3-(3-(5-methyl-2-(3,3,3-trifluoropropoxy)phenyl)-4-oxothiazolidin-2-ylidene)urea] | – | – | 50 to 100 | 50 to 100 | – |
| COC(C)c1ccc(C)cc1N1C(=O)CS/C1=N\C(=O)Nc1ccc(-c2ncn(-c3ccc(S(=O)(=O)C(F)(F)F)cc3)n2)cc1F (stereo not shown) [Compound J361, (Z)-1-(2-Fluoro-4-(1-(4-((trifluoromethyl)sulfonyl)phenyl)-1H-1,2,4-triazol-3-yl)phenyl)-3-(3-(2-(1-methoxyethyl)-5-methylphenyl)-4-oxothiazolidin-2-ylidene)urea] | – | – | 50 to 100 | 50 to 100 | – |
| Cc1ccc(COCC(F)(F)F)c(N2C(=O)CS/C2=N\C(=O)Nc2ccc(-c3ncn(-c4ccc(SC(F)(F)F)cc4)n3)cc2)c1 [Compound J367, (Z)-1-(3-(5-Methyl-2-((2,2,2-trifluoroethoxy)methyl)phenyl)-4-oxothiazolidin-2-ylidene)-3-(4-(1-(4-((trifluoromethyl)thio)phenyl)-1H-1,2,4-triazol-3-yl)phenyl)urea] | – | – | 50 to 100 | 50 to 100 | – |
| Cc1ccc(OCCC(F)(F)F)c(N2C(=O)CS/C2=N\C(=O)Nc2ccc(-c3ncn(-c4ccc(S(=O)(=O)C(F)(F)F)cc4)n3)cc2F)c1 [Compound J369, (Z)-1-(2-Fluoro-4-(1-(4-((trifluoromethyl)sulfonyl)phenyl)-1H-1,2,4-triazol-3-yl)phenyl)-3-(3-(5-methyl-2-(3,3,3-trifluoropropoxy)phenyl)-4-oxothiazolidin-2-ylidene)urea] | – | – | 50 to 100 | 50 to 100 | – |
| CCCc1ccc(N(C)C)cc1N1C(=O)CS/C1=N\C(=O)Nc1ccc(-c2ncn(-c3ccc(S(=O)(=O)C(F)(F)F)cc3)n2)cc1F [Compound J370, (Z)-1-(3-(5-(Dimethylamino)-2-propylphenyl)-4-oxothiazolidin-2-ylidene)-3-(2-fluoro-4-(1-(4-((trifluoromethyl)sulfonyl)phenyl)-1H-1,2,4-triazol-3-yl)phenyl)urea] | – | – | 50 to 100 | 50 to 100 | – |
| CC(C)c1cc(F)c(N(C)C)cc1N1C(=O)CS/C1=N\C(=O)Nc1ccc(-c2ncn(-c3ccc(S(=O)(=O)C(F)(F)F)cc3)n2)cc1F [Compound J371, (Z)-1-(3-(5-(dimethylamino)-4-fluoro-2-isopropylphenyl)-4-oxothiazolidin-2-ylidene)-3-(2-fluoro-4-(1-(4-((trifluoromethyl)sulfonyl)phenyl)-1H-1,2,4-triazol-3-yl)phenyl)urea] | – | – | 50 to 100 | 50 to 100 | – |
| N#Cc1ccc(OCCC(F)(F)F)c(N2C(=O)CS/C2=N\C(=O)Nc2ccc(-c3ncn(-c4ccc(S(=O)(=O)C(F)(F)F)cc4)n3)cc2F)c1 [Compound J372, (Z)-1-(3-(5-Cyano-2-(3,3,3-trifluoropropoxy)phenyl)-4-oxothiazolidin-2-ylidene)-3-(2-fluoro-4-(1-(4-((trifluoromethyl)sulfonyl)phenyl)-1H-1,2,4-triazol-3-yl)phenyl)urea] | – | – | 50 to 100 | 50 to 100 | – |
